Source: US8778985B2, “Inhibiting amyloid-beta peptide/rage interaction at the blood-brain barrier” (The University of Rochester, priority 2006, dated 2014)

Target: T1, RAGE (Homo sapiens, UniProt Q15109)
T1 construct: expressed in transfected cells; host or cells: Chinese hamster ovary (CHO) cells
Assay: 125I-Aβ40 specific binding on RAGE-transfected CHO cells at 4° C., competitive inhibition
Details: for inhibitory constant (Ki) of Aβ-RAGE binding: competitive
From the text: Data are mean±s.e.m., n=3 per group.
All three are tertiary amides substituted with a large, hydrophobic hydrocarbon moiety and a monosubstituted aromatic moiety. Linkage to the monosubstituted aromatic is either direct (FPS2) or via an alkyl (FPS1) or heteroaromatic (FPS3) spacer. Two of the compounds also feature a highly electron-poor substituted benzene ring (3-nitro, 4-chloro for FPS1; 3,5-dinitro for FPS2).

T1 sequence (Q15109 23-404): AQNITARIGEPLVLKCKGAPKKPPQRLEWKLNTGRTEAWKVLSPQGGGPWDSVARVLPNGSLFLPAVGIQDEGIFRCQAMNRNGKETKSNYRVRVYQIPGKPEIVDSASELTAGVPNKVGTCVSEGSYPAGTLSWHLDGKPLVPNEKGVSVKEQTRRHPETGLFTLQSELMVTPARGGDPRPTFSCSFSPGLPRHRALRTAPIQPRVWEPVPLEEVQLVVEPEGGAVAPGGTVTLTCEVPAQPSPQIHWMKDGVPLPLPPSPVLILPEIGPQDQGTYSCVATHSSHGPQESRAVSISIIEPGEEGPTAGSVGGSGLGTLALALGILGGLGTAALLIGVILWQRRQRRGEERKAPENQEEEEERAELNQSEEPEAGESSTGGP

| SMILES | Ki/Kd ratio (Ki compound's inhibitory constant, Kd Aβ-RAGE binding constant) | inhibitory constant (Ki) of Aβ-RAGE binding |
| --- | --- | --- |
| CCOCCCN(CC(=O)N(Cc1cccn1Cc1ccc(F)cc1)C1CCCCC1)C(=O)C(C)(C)CCl [FPS1, 3-chloro-N-[2-[cyclohexyl[[1-[(4-fluorophenyl)methyl]-1H-pyrrol-2-yl]methyl]amino]-2-oxoethyl]-N-(3-ethoxypropyl)-2,2-dimethyl-(9Cl)-propanamide] | 2.6 | low |
| CCCCCC(=Cc1ccccc1)CN(CCc1c[nH]c2ccccc12)C(=O)c1ccc(Cl)c([N+](=O)[O-])c1 [FPS3, 4-chloro-N-[2-(1H-indo-3-yl)-ethyl]-3-nitro-N-(2-pentyl-3-phenyl-allyl)-benzamide] | 1.6 | low |
